Experimental data: US9145351B2, “Azole derivatives, methods for producing the same, intermediate thereof, agro-horticultural agents” (KUREHA CORPORATION, priority 2009, dated 2015)
Where two headings read alike, the source gives them in different places.

Columns and labels:
[1] = test system: Cladosporium sp.; experiment: Plate medium assay, industrial material deteriorating microorganism, Cladosporium (Experimental Example 5); assay type: cell-based; details: treatment at 50 mg/l, PDA plate medium, read-out: growth inhibition grade
Protocol: (§1) In this Experimental Example, the fungicidal effects of the inventive compounds on various phytopathogenic fungi for plants and hazardous microorganism for industrial materials were examined by the methods described below. Each inventive compound was dissolved in 2 ml of dimethyl sulfoxide. 0.6 ml of this solution was added to 60 nil of a PDA medium (potato dextrose agar medium) at about 60 degrees C., which was mixed thoroughly in a 100-ml conical flask, and poured into a dish, where it was solidified, thereby obtaining a plate medium containing the inventive compound at 50 mg/L and 5 mg/L. On the other hand, a subject microorganism previously cultured on a plate medium was cut out using a cork borer whose diameter was 4 mm, and inoculated to the test compound-containing plate medium described above. […] The growth degree of the microorganism on the test compound-containing plate medium thus observed was compared with the growth degree of the microorganism in the untreated group, and % mycelial growth inhibition was calculated by the following equation. R=100(dc-dt)/dc wherein R=% mycelial extension inhibition, dc=flora diameter in untreated plate, dt=flora diameter in treated plate. The results obtained as described above were evaluated as one of the 5 grades according to the following criteria.

[2] = test system: Fusarium graminearum; experiment: whole plant or invertebrate; assay type: in vivo; details: in Triticum aestivum, 168 h, read-out: Protective value
[3] = test system: Phaeosphaeria nodorum; experiment: Plate medium fungicidal assay, wheat Septoria nodorum blotch P.n (Experimental Example 5); assay type: cell-based; details: Parastagonospora nodorum
Protocol: as §1, with “R=100(dc−dt)/dc” for “R=100(dc-dt)/dc”, “criteria. […] Wheat Septoria nodorum blotch (Phaeosphaeria nodorum) P.n” for “criteria.”

[4] = test system: Mucor sp.; experiment: Plate medium assay, industrial material deteriorating microorganism, Mucor (Experimental Example 5); assay type: cell-based; details: treatment at 50 mg/l, PDA plate medium, read-out: growth inhibition grade
Protocol: as §1

[5] = test system: Giberella fujikuroi; experiment: Plate medium fungicidal assay, rice bakanae disease G.f (Experimental Example 5); assay type: cell-based
Protocol: as §1, with “R=100(dc−dt)/dc” for “R=100(dc-dt)/dc”, “criteria. […] Rice bakanae disease (Giberella fujikuroi) G.f” for “criteria.”

[6] = test system: Trichoderma sp.; experiment: Plate medium assay, industrial material deteriorating microorganism, Trichoderma (Experimental Example 5); assay type: cell-based; details: treatment at 50 mg/l, PDA plate medium, read-out: growth inhibition grade
Protocol: as §1

[7] = test system: Fusarium oxysporum; experiment: Plate medium fungicidal assay, cucumber fusarium wilt F.c (Experimental Example 5); assay type: cell-based; details: Fusarium oxysporum
Protocol: as §1, with “R=100(dc−dt)/dc” for “R=100(dc-dt)/dc”, “criteria. […] Cucumber fusarium wilt (Fusarium oxysporum) F.c” for “criteria.”

[8] = test system: Ustilago nuda; experiment: Plate medium fungicidal assay, barley loose smut U.n (Experimental Example 5); assay type: cell-based; details: Ustilago nuda
Protocol: as §1, with “R=100(dc−dt)/dc” for “R=100(dc-dt)/dc”, “criteria. […] Barley loose smut (Ustilago nuda) U.n” for “criteria.”

[9] = plate medium containing compound at 5 mg/L, read-out: Growth inhibition grade, P.n
[10] = plate medium containing compound at 50 mg/L, read-out: Growth inhibition grade, P.n
[11] = plate medium containing compound at 5 mg/L, read-out: Growth inhibition grade, G.f
[12] = plate medium containing compound at 50 mg/L, read-out: Growth inhibition grade, G.f
[13] = plate medium containing compound at 5 mg/L, read-out: Growth inhibition grade, F.c
[14] = plate medium containing compound at 50 mg/L, read-out: Growth inhibition grade, F.c
[15] = plate medium containing compound at 5 mg/L, read-out: Growth inhibition grade, U.n
[16] = plate medium containing compound at 50 mg/L, read-out: Growth inhibition grade, U.n
[17] = plate medium, 5 mg/L, read-out: growth inhibition grade P.n
[18] = plate medium, 50 mg/L, read-out: growth inhibition grade P.n
[19] = plate medium, 5 mg/L, read-out: growth inhibition grade G.f
[20] = plate medium, 50 mg/L, read-out: growth inhibition grade G.f
[21] = plate medium, 5 mg/L, read-out: growth inhibition grade F.c
[22] = plate medium, 50 mg/L, read-out: growth inhibition grade F.c
[23] = plate medium, 5 mg/L, read-out: growth inhibition grade U.n
[24] = plate medium, 50 mg/L, read-out: growth inhibition grade U.n

O[C@]1(Cn2cncn2)[C@H](Cc2ccc(Cl)cc2)CC[C@@H]1C(F)(F)F (racemic) [Compound I-65, (1RS,2SR,5SR)-5-(4-chlorobenzyl)-2-trifluoromethyl-1-(1H-1,2,4-triazol-1-ylmethyl)cyclopentanol]
40 to 60%: inhibition at 5 µg/mL [7, 13] | inhibition at 5 µg/mL [8, 15]
60 to 80%: inhibition at 50 µg/mL [1] | inhibition at 5 µg/mL [3, 9] | inhibition at 50 µg/mL [4] | inhibition at 5 µg/mL [5, 11] | inhibition at 50 µg/mL [6]
≥ 90%: pest or weed control at 500 µg/mL [2]
> 80%: inhibition at 50 µg/mL [3, 10] | inhibition at 50 µg/mL [5, 12] | inhibition at 50 µg/mL [7, 14] | inhibition at 50 µg/mL [8, 16]

C[C@]1(CCl)CC[C@@H](Cc2ccccc2)[C@]1(O)Cn1cncn1 (racemic) [Compound I-73, (1RS,2SR,5SR)-2-chloromethyl-5-benzyl-2-methyl-1-(1H-1,2,4-triazol-1-ylmethyl)cyclopentanol]
≥ 80%: pest or weed control at 100 µg/mL [2]
60 to 80%: inhibition at 50 µg/mL [1] | inhibition at 50 µg/mL [4] | inhibition at 50 µg/mL [6]
≥ 90%: pest or weed control at 500 µg/mL [2]
> 80%: inhibition at 5 µg/mL [3, 9] | inhibition at 50 µg/mL [3, 10] | inhibition at 5 µg/mL [3, 17] | inhibition at 50 µg/mL [3, 18] | inhibition at 5 µg/mL [5, 11] | inhibition at 50 µg/mL [5, 12] | inhibition at 5 µg/mL [5, 19] | inhibition at 50 µg/mL [5, 20] | inhibition at 5 µg/mL [7, 13] | inhibition at 50 µg/mL [7, 14] | inhibition at 5 µg/mL [7, 21] | inhibition at 50 µg/mL [7, 22] | inhibition at 5 µg/mL [8, 15] | inhibition at 50 µg/mL [8, 16] | inhibition at 5 µg/mL [8, 23] | inhibition at 50 µg/mL [8, 24]

C[C@]1(CCl)CC[C@@H](Cc2cccc(Cl)c2)[C@]1(O)Cn1cncn1 (racemic) [Compound I-74, (1RS,2SR,5SR)-5-(3-chlorobenzyl)-2-chloromethyl-2-methyl-1-(1H-1,2,4-triazol-1-ylmethyl)cyclopentanol]
≥ 80%: pest or weed control at 100 µg/mL [2]
> 80%: inhibition at 5 µg/mL [3, 9] | inhibition at 50 µg/mL [3, 10] | inhibition at 5 µg/mL [5, 11] | inhibition at 50 µg/mL [5, 12] | inhibition at 5 µg/mL [7, 13] | inhibition at 50 µg/mL [7, 14] | inhibition at 5 µg/mL [8, 15] | inhibition at 50 µg/mL [8, 16]
≥ 90%: pest or weed control at 500 µg/mL [2]
60 to 80%: inhibition at 50 µg/mL [1] | inhibition at 50 µg/mL [4] | inhibition at 50 µg/mL [6]

C[C@]1(CCl)CC[C@@H](Cc2ccc(F)cc2)[C@]1(O)Cn1cncn1 (racemic) [Compound I-77, (1RS,2SR,5SR)-2-chloromethyl-5-(4-fluorobenzyl)-2-methyl-1-(1H-1,2,4-triazol-1-ylmethyl)cyclopentanol]
> 80%: inhibition at 5 µg/mL [3, 9] | inhibition at 50 µg/mL [3, 10] | inhibition at 5 µg/mL [3, 17] | inhibition at 50 µg/mL [3, 18] | inhibition at 5 µg/mL [5, 11] | inhibition at 50 µg/mL [5, 12] | inhibition at 5 µg/mL [5, 19] | inhibition at 50 µg/mL [5, 20] | inhibition at 5 µg/mL [7, 13] | inhibition at 50 µg/mL [7, 14] | inhibition at 5 µg/mL [7, 21] | inhibition at 50 µg/mL [7, 22] | inhibition at 5 µg/mL [8, 15] | inhibition at 50 µg/mL [8, 16] | inhibition at 5 µg/mL [8, 23] | inhibition at 50 µg/mL [8, 24]
≥ 90%: pest or weed control at 500 µg/mL [2]
≥ 80%: pest or weed control at 100 µg/mL [2]
60 to 80%: inhibition at 50 µg/mL [1] | inhibition at 50 µg/mL [4] | inhibition at 50 µg/mL [6]

C[C@@]1(CCCl)CC[C@@H](Cc2ccc(Cl)cc2)[C@]1(O)Cn1cncn1 (racemic) [Compound I-104, (1RS,2SR,5SR)-5-(4-chlorobenzyl)-2-(2-chloroethyl)-2-methyl-1-(1H-1,2,4-triazol-1-ylmethyl)cyclopentanol]
> 80%: inhibition at 5 µg/mL [3, 17] | inhibition at 50 µg/mL [3, 18] | inhibition at 5 µg/mL [5, 19] | inhibition at 50 µg/mL [5, 20] | inhibition at 5 µg/mL [7, 21] | inhibition at 50 µg/mL [7, 22] | inhibition at 5 µg/mL [8, 23] | inhibition at 50 µg/mL [8, 24]
≥ 90%: pest or weed control at 500 µg/mL [2]
60 to 80%: inhibition at 50 µg/mL [1] | inhibition at 50 µg/mL [4] | inhibition at 50 µg/mL [6]
≥ 80%: pest or weed control at 100 µg/mL [2]

CC(Cl)=C[C@]1(C)CC[C@@H](Cc2ccc(Cl)cc2)[C@]1(O)Cn1cncn1 (racemic) [Compound I-115, (1RS,2SR,5SR)-5-(4-chlorobenzyl)-2-(2-chloropropenyl)-2-methyl-1-(1H-1,2,4-triazol-1-ylmethyl)cyclopentanol]
≥ 80%: pest or weed control at 100 µg/mL [2]
≥ 90%: pest or weed control at 500 µg/mL [2]
> 80%: inhibition at 50 µg/mL [3, 18] | inhibition at 5 µg/mL [5, 19] | inhibition at 50 µg/mL [5, 20] | inhibition at 5 µg/mL [7, 21] | inhibition at 50 µg/mL [7, 22] | inhibition at 50 µg/mL [8, 24]
60 to 80%: inhibition at 50 µg/mL [1] | inhibition at 5 µg/mL [3, 17] | inhibition at 50 µg/mL [4] | inhibition at 50 µg/mL [6] | inhibition at 5 µg/mL [8, 23]
